Experiments:
Test in all cases: relative viability (nuclei count vs DMSO), 5 days (fraction); higher = more cells survive
[1] = compound: C=CCn1c(=O)c2cnc(Nc3ccc(N4CCN(C)CC4)cc3)nc2n1-c1cccc(C(C)(C)O)n1 [Adavosertib] + C[C@@H](Oc1cc(-c2cnn(C3CCNCC3)c2)cnc1N)c1c(Cl)ccc(F)c1Cl [Crizotinib] (partner 1 µM)
Summary of the method: (§1)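 Lung cancer cell lines, seeded in 1536-well plates, were treated the following day by pin tool with a single drug or with five library-drug doses (not always all listed) in √10 steps on top of a fixed anchor-drug dose. Cells were fixed and nuclei stained in one step after 5 days, and nuclei were counted. Relative viability is the nuclei count for treated wells divided by that for vehicle wells, reported as medians of duplicate plates.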

[2] = compound: COc1nc(N)nc2c1ncn2[C@@H]1O[C@H](CO)[C@@H](O)[C@@H]1O [Nelarabine] + NC(=O)Nc1cc(-c2cccc(F)c2)sc1C(=O)N[C@H]1CCCNC1 [AZD7762] (partner 0.2 µM)
Summary of the method: as §1

[3] = compound: C=CCn1c(=O)c2cnc(Nc3ccc(N4CCN(C)CC4)cc3)nc2n1-c1cccc(C(C)(C)O)n1 [Adavosertib] + CC(C)C[C@H](NC(=O)[C@H](Cc1ccccc1)NC(=O)c1cnccn1)B(O)O [Bortezomib] (partner 0.002 µM)
Summary of the method: as §1

[4] = compound: COc1nc(N)nc2c1ncn2[C@@H]1O[C@H](CO)[C@@H](O)[C@@H]1O [Nelarabine] + CC(C)C[C@H](NC(=O)[C@H](Cc1ccccc1)NC(=O)c1cnccn1)B(O)O [Bortezomib] (partner 0.002 µM)
Summary of the method: as §1

Cell Line: SK-MES-1
- relative viability ([1]; first compound 0.01 µM): 0.92
- relative viability ([1]; first compound 0.03162 µM): 1.02
- relative viability ([1]; first compound 0.1 µM): 0.983
- relative viability ([1]; first compound 0.3162 µM): 0.791

Cell Line: NCI-H2170
- relative viability ([1]; first compound 0.01 µM): 1.23
- relative viability ([1]; first compound 0.03162 µM): 1.17
- relative viability ([1]; first compound 0.1 µM): 1.19
- relative viability ([1]; first compound 0.3162 µM): 1.35
- relative viability ([2]; first compound 0.01 µM): 1.15
- relative viability ([2]; first compound 0.03162 µM): 0.869
- relative viability ([2]; first compound 0.1 µM): 0.843
- relative viability ([2]; first compound 0.3162 µM): 0.932
- relative viability ([2]; first compound 1 µM): 0.709

Cell Line: NCI-H1648
- relative viability ([2]; first compound 0.03162 µM): 0.597
- relative viability ([2]; first compound 0.3162 µM): 0.638
- relative viability ([2]; first compound 1 µM): 0.664

Cell Line: UMC-11
- relative viability ([1]; first compound 0.01 µM): 0.63
- relative viability ([1]; first compound 0.03162 µM): 0.588
- relative viability ([1]; first compound 0.1 µM): 0.739
- relative viability ([1]; first compound 0.3162 µM): 0.623
- relative viability ([3]; first compound 0.01 µM): 0.737
- relative viability ([3]; first compound 0.03162 µM): 0.481
- relative viability ([3]; first compound 0.1 µM): 0.927
- relative viability ([3]; first compound 0.3162 µM): 0.708
- relative viability ([4]; first compound 0.01 µM): 0.928
- relative viability ([4]; first compound 0.03162 µM): 0.572
- relative viability ([4]; first compound 0.1 µM): 0.924
- relative viability ([4]; first compound 0.3162 µM): 0.816
- relative viability ([4]; first compound 1 µM): 0.535

Cell Line: HCC-15
- relative viability ([1]; first compound 0.01 µM): 0.826
- relative viability ([1]; first compound 0.03162 µM): 0.818
- relative viability ([1]; first compound 0.1 µM): 0.96
- relative viability ([1]; first compound 0.3162 µM): 0.967
- relative viability ([3]; first compound 0.01 µM): 1.01
- relative viability ([3]; first compound 0.03162 µM): 0.953
- relative viability ([3]; first compound 0.1 µM): 1.07
- relative viability ([3]; first compound 0.3162 µM): 1.26
- relative viability ([2]; first compound 0.01 µM): 1.47
- relative viability ([2]; first compound 0.03162 µM): 1.15
- relative viability ([2]; first compound 0.1 µM): 0.967
- relative viability ([2]; first compound 0.3162 µM): 1.17
- relative viability ([2]; first compound 1 µM): 1.19
- relative viability ([4]; first compound 0.01 µM): 1.33
- relative viability ([4]; first compound 0.03162 µM): 0.917
- relative viability ([4]; first compound 0.1 µM): 1.18
- relative viability ([4]; first compound 0.3162 µM): 1.11
- relative viability ([4]; first compound 1 µM): 1.14

Cell Line: HCC-78
- relative viability ([1]; first compound 0.01 µM): 0.34
- relative viability ([1]; first compound 0.03162 µM): 0.351
- relative viability ([1]; first compound 0.1 µM): 0.339
- relative viability ([1]; first compound 0.3162 µM): 0.347
- relative viability ([3]; first compound 0.01 µM): 0.542
- relative viability ([3]; first compound 0.03162 µM): 0.46
- relative viability ([3]; first compound 0.1 µM): 0.529
- relative viability ([3]; first compound 0.3162 µM): 0.573
- relative viability ([2]; first compound 0.01 µM): 0.708
- relative viability ([2]; first compound 0.03162 µM): 0.673
- relative viability ([2]; first compound 0.3162 µM): 0.764
- relative viability ([2]; first compound 1 µM): 0.564
- relative viability ([4]; first compound 0.01 µM): 0.771
- relative viability ([4]; first compound 0.03162 µM): 0.497
- relative viability ([4]; first compound 0.3162 µM): 0.584
- relative viability ([4]; first compound 1 µM): 0.539

Cell Line: NCI-H647
- relative viability ([1]; first compound 0.01 µM): 1.2
- relative viability ([1]; first compound 0.03162 µM): 1.08
- relative viability ([1]; first compound 0.1 µM): 0.967
- relative viability ([1]; first compound 0.3162 µM): 0.593
- relative viability ([3]; first compound 0.01 µM): 1.01
- relative viability ([3]; first compound 0.03162 µM): 0.748
- relative viability ([3]; first compound 0.1 µM): 1.11
- relative viability ([3]; first compound 0.3162 µM): 0.642
- relative viability ([2]; first compound 0.01 µM): 0.554
- relative viability ([2]; first compound 0.03162 µM): 0.294
- relative viability ([2]; first compound 0.1 µM): 0.563
- relative viability ([2]; first compound 0.3162 µM): 0.58
- relative viability ([2]; first compound 1 µM): 0.431
- relative viability ([4]; first compound 0.01 µM): 1.28
- relative viability ([4]; first compound 0.03162 µM): 0.988
- relative viability ([4]; first compound 0.1 µM): 0.897
- relative viability ([4]; first compound 0.3162 µM): 1.29
- relative viability ([4]; first compound 1 µM): 1.14

Cell Line: NCI-H2009
- relative viability ([1]; first compound 0.01 µM): 0.995
- relative viability ([1]; first compound 0.03162 µM): 1.05
- relative viability ([1]; first compound 0.1 µM): 1.03
- relative viability ([1]; first compound 0.3162 µM): 1.04
- relative viability ([3]; first compound 0.01 µM): 1.09
- relative viability ([3]; first compound 0.03162 µM): 1.05
- relative viability ([3]; first compound 0.1 µM): 1.04
- relative viability ([3]; first compound 0.3162 µM): 1.02
- relative viability ([4]; first compound 0.01 µM): 1.24
- relative viability ([4]; first compound 0.03162 µM): 1.09
- relative viability ([4]; first compound 0.1 µM): 0.952
- relative viability ([4]; first compound 0.3162 µM): 1.03
- relative viability ([4]; first compound 1 µM): 1.06

Cell Line: NCI-H520
- relative viability ([1]; first compound 0.01 µM): 0.925
- relative viability ([1]; first compound 0.03162 µM): 0.83
- relative viability ([1]; first compound 0.1 µM): 0.94
- relative viability ([1]; first compound 0.3162 µM): 0.579
- relative viability ([3]; first compound 0.01 µM): 0.708
- relative viability ([3]; first compound 0.03162 µM): 0.803
- relative viability ([3]; first compound 0.1 µM): 0.553
- relative viability ([3]; first compound 0.3162 µM): 0.535
- relative viability ([4]; first compound 0.01 µM): 0.67
- relative viability ([4]; first compound 0.03162 µM): 0.552
- relative viability ([4]; first compound 0.1 µM): 0.696
- relative viability ([4]; first compound 0.3162 µM): 0.542
- relative viability ([4]; first compound 1 µM): 0.529

Cell Line: RERF-LC-KJ
- relative viability ([1]; first compound 0.01 µM): 0.795
- relative viability ([1]; first compound 0.03162 µM): 0.815
- relative viability ([1]; first compound 0.1 µM): 0.94
- relative viability ([1]; first compound 0.3162 µM): 0.925
- relative viability ([3]; first compound 0.01 µM): 1.14
- relative viability ([3]; first compound 0.03162 µM): 1.02
- relative viability ([3]; first compound 0.1 µM): 1.19
- relative viability ([3]; first compound 0.3162 µM): 1.28
- relative viability ([2]; first compound 0.01 µM): 0.993
- relative viability ([2]; first compound 0.03162 µM): 1.11
- relative viability ([2]; first compound 0.1 µM): 1.02
- relative viability ([2]; first compound 0.3162 µM): 1.15
- relative viability ([2]; first compound 1 µM): 1.08
- relative viability ([4]; first compound 0.01 µM): 1.03
- relative viability ([4]; first compound 0.03162 µM): 1.39
- relative viability ([4]; first compound 0.1 µM): 1.24
- relative viability ([4]; first compound 0.3162 µM): 1.29
- relative viability ([4]; first compound 1 µM): 1.33

Cell Line: NCI-H441
- relative viability ([1]; first compound 0.01 µM): 0.751
- relative viability ([1]; first compound 0.03162 µM): 0.637
- relative viability ([1]; first compound 0.1 µM): 0.838
- relative viability ([1]; first compound 0.3162 µM): 0.568
- relative viability ([3]; first compound 0.01 µM): 0.38
- relative viability ([3]; first compound 0.03162 µM): 0.761
- relative viability ([3]; first compound 0.1 µM): 0.414
- relative viability ([3]; first compound 0.3162 µM): 0.354
- relative viability ([2]; first compound 0.01 µM): 1.33
- relative viability ([2]; first compound 0.03162 µM): 1.2
- relative viability ([2]; first compound 0.1 µM): 1.43
- relative viability ([2]; first compound 0.3162 µM): 1.14
- relative viability ([2]; first compound 1 µM): 1.23
- relative viability ([4]; first compound 0.01 µM): 0.357
- relative viability ([4]; first compound 0.03162 µM): 0.71
- relative viability ([4]; first compound 0.1 µM): 0.613
- relative viability ([4]; first compound 0.3162 µM): 0.519
- relative viability ([4]; first compound 1 µM): 0.567

Cell Line: NCI-H1666
- relative viability ([1]; first compound 0.01 µM): 0.926
- relative viability ([1]; first compound 0.03162 µM): 0.963
- relative viability ([1]; first compound 0.1 µM): 1.01
- relative viability ([1]; first compound 0.3162 µM): 1.05
- relative viability ([3]; first compound 0.01 µM): 0.831
- relative viability ([3]; first compound 0.03162 µM): 0.87
- relative viability ([3]; first compound 0.1 µM): 0.729
- relative viability ([3]; first compound 0.3162 µM): 0.62
- relative viability ([2]; first compound 0.01 µM): 0.844
- relative viability ([2]; first compound 0.03162 µM): 0.877
- relative viability ([2]; first compound 0.1 µM): 0.819
- relative viability ([2]; first compound 0.3162 µM): 0.84
- relative viability ([2]; first compound 1 µM): 0.795
- relative viability ([4]; first compound 0.01 µM): 1.02
- relative viability ([4]; first compound 0.03162 µM): 1.02
- relative viability ([4]; first compound 0.1 µM): 0.747
- relative viability ([4]; first compound 0.3162 µM): 0.89
- relative viability ([4]; first compound 1 µM): 0.789
